Measurements taken from patent US20250179103A1, “6-OXODECAHYDROPYRROLO[1,2-A][1,5]DIAZOCINE AND 6-OXODECAHYDRO-4H-PYRROLO[2,1-D][1,5]THIAZOCINE DERIVATIVES AS STAT3 AND STAT6 MODULATORS FOR THE TREATMENT OF CANCER AND INFLAMMATORY CONDITIONS” (Recludix Pharma, Inc., priority 2022, published 2025).

Assays:
[1] = target: T1, Recombinant STAT6 protein (STAT6(W123-T658)) (Homo sapiens, UniProt P42226); experiment: STAT6 Fluorescence Polarization (FP) Assay; type: binding; details: STAT6(W123-T658) 250 nM, probe 5-FAM-ApYKPFQDLI-NH2 2 nM, 45-minute incubation
T1 construct: Recombinant STAT6 protein (STAT6(W123-T658))
T1 sequence (P42226 123-658): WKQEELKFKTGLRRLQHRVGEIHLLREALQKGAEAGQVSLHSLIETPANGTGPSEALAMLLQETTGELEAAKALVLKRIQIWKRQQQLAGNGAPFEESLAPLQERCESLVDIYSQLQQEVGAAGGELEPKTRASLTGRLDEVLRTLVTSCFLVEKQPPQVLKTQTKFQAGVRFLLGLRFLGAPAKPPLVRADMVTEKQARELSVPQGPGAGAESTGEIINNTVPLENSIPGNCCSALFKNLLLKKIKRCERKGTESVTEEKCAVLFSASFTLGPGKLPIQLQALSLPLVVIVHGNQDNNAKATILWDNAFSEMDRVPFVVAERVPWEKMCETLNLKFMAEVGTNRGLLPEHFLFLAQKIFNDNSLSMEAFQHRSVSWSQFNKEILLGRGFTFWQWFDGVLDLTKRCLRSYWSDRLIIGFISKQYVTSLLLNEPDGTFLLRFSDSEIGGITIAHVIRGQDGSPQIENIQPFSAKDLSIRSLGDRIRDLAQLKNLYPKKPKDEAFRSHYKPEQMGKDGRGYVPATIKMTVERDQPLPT
Summary of the method: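 Displacement of a fluorescent phosphotyrosine peptide (5-FAM-ApYKPFQDLI-NH2, 2 nM) from STAT6(W123-T658) (250 nM), 1% DMSO, pH 7.4 HEPES buffer. After 45 min at room temperature, polarization (mP) was plotted versus log compound concentration and fitted by nonlinear regression to give IC50.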

[2] = target: T2, Recombinant STAT3 protein (STAT3(G127-I722)) (Homo sapiens, UniProt P40763); experiment: STAT3 Fluorescence Polarization (FP) Assay; type: binding; details: STAT3(G127-I722) 25 nM, probe 5-FAM-GpYLPQTV-NH2 2 nM, 45-minute incubation
T2 construct: Recombinant STAT3 protein (STAT3(G127-I722))
Summary of the method: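 Fluorescence polarization after a 45-min room-temperature incubation measured compound displacement of a 2 nM fluorescein-labelled phosphotyrosine peptide (5-FAM-GpYLPQTV-NH2) from 25 nM recombinant STAT3(G127-I722). Buffer was 10 mM HEPES pH 7.4 with 1% DMSO final. IC50s were fitted by nonlinear regression of mP against log concentration.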

T2 sequence (P40763 127-722): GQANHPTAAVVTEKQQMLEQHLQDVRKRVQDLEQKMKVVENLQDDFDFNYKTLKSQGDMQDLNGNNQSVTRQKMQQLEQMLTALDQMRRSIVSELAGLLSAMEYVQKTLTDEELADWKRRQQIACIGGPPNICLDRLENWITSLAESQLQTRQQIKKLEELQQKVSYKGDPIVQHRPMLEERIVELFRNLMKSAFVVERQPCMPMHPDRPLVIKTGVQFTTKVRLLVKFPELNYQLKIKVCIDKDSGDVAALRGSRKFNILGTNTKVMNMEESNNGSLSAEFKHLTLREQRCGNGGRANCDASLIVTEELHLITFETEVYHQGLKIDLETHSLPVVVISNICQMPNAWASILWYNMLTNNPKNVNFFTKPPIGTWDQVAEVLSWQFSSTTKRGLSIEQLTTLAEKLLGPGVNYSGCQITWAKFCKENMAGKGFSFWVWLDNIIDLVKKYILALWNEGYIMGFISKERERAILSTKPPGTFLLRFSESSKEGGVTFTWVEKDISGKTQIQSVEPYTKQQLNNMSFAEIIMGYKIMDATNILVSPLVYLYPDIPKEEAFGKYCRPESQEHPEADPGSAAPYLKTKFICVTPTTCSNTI

Structure (SMILES) | IC50 [1] [µM] | IC50 [2] [µM]
CCN1CC[C@H]2CC[C@@H](C(=O)N3C[C@@H](C#N)[C@H](c4ccccc4)C3)N2C(=O)[C@@H](NC(=O)c2cc3cc([C@H](F)P(=O)(O)O)ccc3s2)C1 (single isomer, unassigned) [Compound 232, ((R or S)-(2-(((5S,8S,10aR)-8-((3S,4R or 3R,4R)-3-cyano-4-phenylpyrrolidine-1-carbonyl)-3-ethyl-6-oxodecahydropyrrolo[1,2-a][1,5]diazocin-5-yl)carbamoyl)benzo[b]thiophen-5-yl)fluoromethyl)phosphonic acid] | ≤ 0.3 | 0.1 to 1
CCOc1ccc(N(C)C(=O)[C@@H]2CC[C@@H]3CCN(C(C)=O)C[C@H](NC(=O)c4cc5cc(C(F)(F)P(=O)(O)O)ccc5[nH]4)C(=O)N32)cc1 [Compound 101, ((2-(((5S,8S,10aR)-3-acetyl-8-((4-ethoxyphenyl)(methyl)carbamoyl)-6-oxodecahydropyrrolo[1,2-a][1,5]diazocin-5-yl)carbamoyl)-1H-indol-5-yl)difluoromethyl)phosphonic acid] | 0.3 to 3 | 1 to 10
CCC(=O)N1CC[C@@H](NC(=O)[C@@H]2CC[C@@H]3CCN(C(C)=O)C[C@H](NC(=O)c4cc5cc(C(F)(F)P(=O)(O)O)ccc5[nH]4)C(=O)N32)C1 [Compound 34, ((2-(((5S,8S,10aR)-3-aceytl-6-oxo-8-(((R)-1-propionylpyrrolidin-3-yl)carbamoyl)decahydropyrrolo[1,2-a][1,5]diazocin-5-yl)carbamoyl)-1H-indol-5-yl)difluoromethyl)phosphonic acid] | 0.3 to 3 | 0.1 to 1
CC(=O)N1CC[C@H]2CC[C@@H](C(=O)N(C)c3ccccc3)N2C(=O)[C@@H](NC(=O)c2ccc3cc(P(=O)(O)O)ccc3c2)C1 [Compound 113, (6-(((5S,8S,10aR)-3-acetyl-8-(methyl(phenyl)carbamoyl)-6-oxodecahydropyrrolo[1,2-a][1,5]diazocin-5-yl)carbamoyl)naphthalen-2-yl)phosphonic acid] | > 30 | > 10
CC(=O)N1CC[C@H]2CC[C@@H](C(=O)N3C[C@@H](C#N)[C@]4(C3)C(=O)Nc3ccccc34)N2C(=O)[C@@H](NC(=O)c2cc3cc(C(F)(F)P(=O)(O)O)ccc3s2)C1 (single isomer, unassigned) [Compound 12, ((2-(((5S,8S,10aR)-3-acetyl-8-((3S,4′S or 3R,4′R)-4′-cyano-2-oxospiro[indoline-3,3′-pyrrolidine]-1′-carbonyl)-6-oxodecahydropyrrolo[1,2-a][1,5]diazocin-5-yl)carbamoyl)benzo[b]thiophen-5-yl)difluoromethyl)phosphonic acid] | ≤ 0.3 | ≤ 0.1
COc1cc(C2CN(C(=O)[C@@H]3CC[C@@H]4CCN(C(C)=O)C[C@H](NC(=O)c5cc6cc(C(F)(F)P(=O)(O)O)ccc6s5)C(=O)N43)C[C@@H]2C#N)ccn1 (relative stereo) [Compound 148, ((2-(((5S,8S,10aR)-3-acetyl-8-((rel-trans)-3-cyano-4-(2-methoxypyridin-4-yl)pyrrolidine-1-carbonyl)-6-oxodecahydropyrrolo[1,2-a][1,5]diazocin-5-yl)carbamoyl)benzo[b]thiophen-5-yl)difluoromethyl)phosphonic acid] | 0.3 to 3 | 1 to 10
O=C(N[C@H]1CN(C(=O)c2ncn3c2CCCC3)CC[C@H]2CC[C@@H](C(=O)N3CCOCC3)N2C1=O)c1ccc2ccc(C(F)P(=O)(O)O)cc2c1 (stereo partly drawn) [Compound 364, (fluoro(7-(((5S,8S,10aR)-8-(morpholine-4-carbonyl)-6-oxo-3-(5,6,7,8-tetrahydroimidazo[1,5-a]pyridine-1-carbonyl)decahydropyrrolo[1,2-a][1,5]diazocin-5-yl)carbamoyl)naphthalen-2-yl)methyl)phosphonic acid] | 0.3 to 3 | > 10
COc1ccccc1N(C)C(=O)[C@@H]1CC[C@@H]2CCN(C(C)=O)C[C@H](NC(=O)c3cc4cc(C(F)(F)P(=O)(O)O)ccc4[nH]3)C(=O)N21 [Compound 164, ((2-(((5S,8S,10aR)-3-acetyl-8-((2-methoxyphenyl)(methyl)carbamoyl)-6-oxodecahydropyrrolo[1,2-a][1,5]diazocin-5-yl)carbamoyl)-1H-indol-5-yl)difluoromethyl)phosphonic acid] | 0.3 to 3 | 1 to 10
O=C(N[C@H]1CN(C(=O)NCC23CCN(CC2)CC3)CC[C@H]2CC[C@@H](C(=O)N3CC(c4cccnc4)C3)N2C1=O)c1cc2cc(C(F)(F)P(=O)(O)O)ccc2s1 [Compound 401, (difluoro(2-(((5S,8S, 10aR)-6-oxo-8-(3-(pyridin-3-yl)azetidine-1-carbonyl)-3-((quinuclidin-4-ylmethyl)carbamoyl)decahydropyrrolo [1,2-a][1,5]diazocin-5-yl)carbamoyl)benzo[b]thiophen-5-yl)methyl) phosphonic acid] | 3 to 30 | ≤ 0.1
CC(=O)N1CC[C@H]2CC[C@@H](C(=O)Nc3ccc(OCCCN(C)C)cc3)N2C(=O)[C@@H](NC(=O)c2cc3cc(C(F)(F)P(=O)(O)O)ccc3s2)C1 [Compound 73, ((2-(((5S,8S,10aR)-3-acetyl-8-((4-(3-(dimethylamino)propoxy)phenyl)carbamoyl)-6-oxodecahydropyrrolo[1,2-a][1,5]diazocin-5-yl)carbamoyl)benzo[b]thiophen-5-yl)difluoromethyl)phosphonic acid] | 3 to 30 | 1 to 10
Cc1ccc2onc(C(=O)N3CC[C@H]4CC[C@@H](C(=O)N5CCOCC5)N4C(=O)[C@@H](NC(=O)c4ccc5cnc(CP(=O)(O)O)cc5c4)C3)c2c1 [Compound 394, ((6-(((5S,8S,10aR)-3-(5-methylbenzo [d]isoxazole-3-carbonyl)-8-(morpholine-4-carbonyl)-6-oxodecahydropyrrolo [1,2-a][1,5]diazocin-5-yl)carbamoyl)isoquinolin-3-yl)methyl) phosphonic acid] | 3 to 30 | > 10
Cc1ccc2onc(C(=O)N3CC[C@H]4CC[C@@H](C(=O)N5C[C@H](c6ccn(C)c(=O)c6)CC56CC6)N4C(=O)[C@@H](NC(=O)c4ccc5ccc([C@H](F)P(=O)(O)O)cc5c4)C3)c2c1 [Compound 390, ((R)-fluoro(7-(((5S, 8S,10aR)-8-((S)-6-(1-methyl-2-oxo-1,2-dihydropyridin-4-yl)-4-azaspiro[2.4]heptane-4-carbonyl)-3-(5-methylbenzo[d]isoxazole-3-carbonyl)-6-oxodecahydropyrrolo [1,2-a][1,5]diazocin-5-yl)carbamoyl)naphthalen-2-yl)methyl)phosphonic acid] | ≤ 0.3 | 1 to 10
O=C(N[C@H]1CN(Cc2ccn3ccnc3c2)CC[C@H]2CC[C@@H](C(=O)N3CC(c4cccnc4)C3)N2C1=O)c1cc2cc(CP(=O)(O)O)ccc2s1 [Compound 235, ((2-(((5S,8S,10aR)-3-(imidazo[1,2-a]pyridin-7-ylmethyl)-6-oxo-8-(3-(pyridin-3-yl)azetidine-1-carbonyl)decahydropyrrolo[1,2-a][1,5]diazocin-5-yl)carbamoyl)benzo[b]thiophen-5-yl)methyl)phosphonic acid] | > 30 | ≤ 0.1
N#C[C@H]1CN(C(=O)[C@@H]2CC[C@@H]3CN(C(c4ccccc4)c4ccccc4)CC[C@H](NC(=O)c4ccc5ccc(C(F)(F)P(=O)(O)O)cc5c4)C(=O)N32)C[C@@H]1c1ccccc1 (relative stereo) [Compound 209, ((7-(((5S,8S,10aR)-2-benzhydryl-8-((rel-trans)-3-cyano-4-phenylpyrrolidine-1-carbonyl)-6-oxodecahydropyrrolo[1,2-a][1,4]diazocin-5-yl)carbamoyl)naphthalen-2-yl)difluoromethyl)phosphonic acid] | 0.3 to 3 | 1 to 10
CC(=O)N1CC[C@H]2CC[C@@H](C(=O)N(C)c3ccccc3)N2C(=O)[C@@H](NC(=O)c2nc3cc(C(F)(F)P(=O)(O)O)ccc3s2)C1 [Compound 115, ((2-(((5S,8S,10aR)-3-acetyl-8-(methyl(phenyl)carbamoyl)-6-oxodecahydropyrrolo[1,2-a][1,5]diazocin-5-yl)carbamoyl)benzo[d]thiazol-5-yl)difluoromethyl)phosphonic acid] | 0.3 to 3 | > 10
CCC(=O)NCCCN(C)C(=O)[C@@H]1CC[C@@H]2CCN(C(C)=O)C[C@H](NC(=O)/C=C/c3ccc(C(F)(F)P(=O)(O)O)cc3)C(=O)N21 [Compound 26, ((4-((E)-3-(((5S,8S,10aR)-3-acetyl-8-(methyl(3-propionamidopropyl)carbamoyl)-6-oxodecahydropyrrolo[1,2-a][1,5]diazocin-5-yl)amino)-3-oxoprop-1-en-1-yl)phenyl)difluoromethyl)phosphonic acid] | > 30 | > 10
